Experimental data: patent publication US20080167314A1, “Condensed Imidazole Compound And Use Thereof” (priority 2004, published 2008)

What was measured:
[1] = tested on: MMP-13 production in human normal articular chondrocytes; assay: Measurement of MMP-13 production inhibitory activity in rhIL-1β-stimulated human normal articular chondrocytes (ELISA); assay type: cell-based; conditions: Chondrocyte, rhIL-1β 0.1 ng/mL, 24 hr, MMP-13 in culture supernatant by ELISA
Description: Measurement of MMP-13 Production Inhibitory Activity
Human normal articular chondrocytes (Camblex) were grown in a chondrocyte growth medium (CGM: Camblex), and the cells were suspended in a chondrocyte differentiation medium (CDM: Camblex) and plated on a 96 well plate at 2×10^4 cells/well (150 μL/well). After culturing for 3 days under 37° C., 5% CO2 conditions, the culture medium was exchanged to 0.1% BSA added α-modification of Eagle's (α-MEM: Gibco), and the cells were cultured for 4 hr. The compound was added thereto and, after culture for 1 hr, recombinant human IL-1β (rhIL-1β: R&D systems) was added at 0.1 ng/mL. After culture for 24 hr, the culture supernatant was recovered, and the concentration of MMP-13 in the culture supernatant was measured by the ELISA method (Amersham).

[2] = tested on: TNF-α production in THP-1 cells; assay: Measurement of TNF-α production inhibitory activity in LPS-stimulated THP-1 cells (ELISA); assay type: cell-based; conditions: Homo sapiens, LPS 5 μg/mL, 4 hours, TNF-α in supernatant by ELISA
Description: Measurement of TNF-α Production Inhibitory Activity
After THP-1 cells which had been cultured in PRMI 1640 medium (manufactured by Life Technologies, Inc.) containing 1% non-activated bovine fetal serum (manufactured by Life Technologies, Inc., U.S.A.) and 10 mM HEPES (pH 7.5) was plated on a 96-well plate to 1×10^5 cells/well, 1 μL test compound dissolved in DMSO was added to there. After incubation at 37° C. for 1 hour in a CO2 incubator, LPS (Wako Pure Chemicals) was added to the final concentration 5 μg/mL. After cultured at 37° C. for 4 hours in a CO2 incubator, the supernatant was obtained by centrifugation. The concentration of TNF-α in the supernatant was measured with ELISA (R&D System, Quantikine Kit). The concentration (IC50 value) necessary for inhibiting TNF-α production by 50% was calculated by PRIMS 2.01 (Graphpad Software).

[3] = target: T1, active form p38 MAP kinase (Homo sapiens, UniProt Q16539); assay: Measurement of the p38 MAP kinase inhibitory activity (32P uptake into Myelin Basic Protein); assay type: biochemical; conditions: 260 ng active form p38 MAP kinase, 1 μg Myelin Basic Protein, 2.5 μM ATP solution, 30° C. for 60 minutes
T1 construct: made in house; host or cells: Sf-21 insect cells, baculovirus BAC-HP38 co-infected with BAC-caMKK3
T1 sequence (Q16539 whole entry): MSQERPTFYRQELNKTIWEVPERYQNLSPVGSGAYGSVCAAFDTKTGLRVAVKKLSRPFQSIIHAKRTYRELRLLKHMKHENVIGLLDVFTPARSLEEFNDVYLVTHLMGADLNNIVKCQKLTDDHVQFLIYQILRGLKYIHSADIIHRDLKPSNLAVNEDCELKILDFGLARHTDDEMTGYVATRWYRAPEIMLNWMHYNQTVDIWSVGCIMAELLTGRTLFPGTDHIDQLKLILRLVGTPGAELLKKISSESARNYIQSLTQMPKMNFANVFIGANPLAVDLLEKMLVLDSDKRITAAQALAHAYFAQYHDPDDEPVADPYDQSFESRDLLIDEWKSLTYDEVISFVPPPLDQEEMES
Description: (1) Cloning of Human p38 MAP Kinase Gene and Preparation of Recombinant Baculovirus
Cloning of human p38 MAP kinase gene was performed by a PCR method using a primer set P38-U:
(3) Preparation of Active Form p38 MAP Kinase
The Sf-21 cells were seeded on 100 ml Sf-900II SFM medium (GIBCOBRL) to 1×10^6 cells/mL and cultured at 27° C. for 24 hours. After each 0.2 mL of the virusstock BAC-HP38 of recombinant Baculovirus and BAC-caMKK3 were added, the culturing was further performed for 48 hours. After the cells were separated from the culturing solution by centrifugation (3000 rpm, 10 min), the cells were washed twice with PBS. After the cells were suspended in 10 ml Lysis buffer (25 mM HEPES (pH 7.5), 1% Triton X, 130 mM NaCl, 1 mM EDTA, 1 mM DTT, 25 mM β-glycerophosphate, […], 1 mM APMSF, 1 mM Sodium orthovanadate), the cells were lysed by treating twice with a homogenizer (POLYTRON) at 20000 rpm for 2 minutes. By using Anti-FLAG M2 Affinity Gel (Eastman Chemical), active form p38 MAP kinase was purified from the supernatant obtained by centrifugation (40000 rpm, 45 minutes).
(4) Measurement of the p38 MAP Kinase Inhibitory Activity
2.5 μL of a test compound dissolved in DMSO was added to 37.5 μL reaction solution (25 mM HEPES (pH 7.5), 10 mM Magnesium Acetate) containing 260 ng active form p38 MAP kinase and 1 μg Myelin Basic Protein, which was maintained at 30° C. for 5 minutes. The reaction was initiated by adding 10 μL ATP solution (2.5 μM ATP, 0.1 μCi [g-^32P]ATP). After the reaction was performed at 30° C. for 60 minutes, the reaction was stopped by adding 50 μL 20% TCA solution. After the reaction solution was allowed to stand at 0° C. for 20 minutes, an acid insoluble fraction was transferred to GF/C filter (Packard Japan) using Cell Harvester (Packard Japan) and washed with 250 mM H3PO4. After drying at 45° C. for 60 minutes, […] Microscint 0 (Packard Japan) was added and the radioactivity was measured with a TopCount (Packard Japan). The concentration (IC50 value) necessary for inhibiting uptake of ^32P into an acid insoluble fraction by 50% was calculated with PRISM 2.01 (Graphpad Software).

`Cc1cccc(-c2nc3cccnn3c2-c2ccnc(NC(=O)C3CC3)c2)c1` [Example compound 20-10, N-{4-[2-(3-methylphenyl)imidazo[1,2-b]pyridazin-3-yl]pyridin-2-yl}cyclopropanecarboxamide] showed an IC50 [1] of 0.025 µM, an IC50 [2] of 0.0054 µM and an IC50 [3] of 0.0097 µM.
`Cc1cccc(-c2nc3cccnn3c2-c2ccnc(NC(=O)c3ccc(F)cc3)c2)c1` [Example compound 20-11, 4-fluoro-N-{4-[2-(3-methylphenyl)imidazo[1,2-b]pyridazin-3-yl]pyridin-2-yl}benzamide] was tested, and the IC50 [1] was 0.04 µM, the IC50 [2] was 0.0038 µM and the IC50 [3] was 0.014 µM.
`CCNC(=O)Nc1cc(-c2c(-c3ccc(F)c(C)c3)nc3cccnn23)ccn1` [Example compound 28-3, N-ethyl-N′-{4-[2-(4-fluoro-3-methylphenyl)imidazo[1,2-b]pyridazin-3-yl]pyridin-2-yl}urea] was tested, and the IC50 [1] was 0.57 µM, the IC50 [2] was 0.045 µM and the IC50 [3] was 0.0079 µM.
With `Cc1cc(-c2nc3cccnn3c2-c2ccnc(NC(=O)NC(C)C)c2)ccc1F` [Example compound 28-5, N-{4-[2-(4-fluoro-3-methylphenyl)imidazo[1,2-b]pyridazin-3-yl]pyridin-2-yl}-N′-isopropylurea] the IC50 [1] was 0.064 µM, the IC50 [2] was 0.064 µM and the IC50 [3] was 0.014 µM.
